Source: ChEMBL document CHEMBL5725517, “Azapeptides as CD36 binding compounds” (2017)
Starred links: 1 amine or outer side, 2 acyl side, 3 side chain; linkers in the order of their positions; H or OH if unused. Non-standard residues stand in square brackets, D forms with d. Residues, ends and D or L forms follow the SMILES beside them. X4 = O=C(N(Cc1ccc(-c2ccccc2)cc1)N[*:1])[*:2]; azaTyr = O=C(N(Cc1ccc(O)cc1)N[*:1])[*:2]; X3 = O=C(N(Cc1cccc2ccccc12)N[*:1])[*:2]; azaPhe = O=C(N(Cc1ccccc1)N[*:1])[*:2]; X2 = O=C(N(CCc1ccccc1)N[*:1])[*:2]; azaLeu = CC(C)CN(N[*:1])C(=O)[*:2]; X1 = O=C(N(CC1CCCCC1)N[*:1])[*:2]

Assay: HS-R1a radioreceptor assay: GHS-R1a radioreceptor assay using LLCPK-1 membranes overexpressing GSH-R1a and radioiodinated (1-28) rat ghrelin as tracer.

EC50 | SMILES
5.49 µM | C[C@H](NC(=O)N(CC1CCCCC1)NC(=O)[C@@H](N)Cc1cnc[nH]1)C(=O)N[C@@H](Cc1c[nH]c2ccccc12)C(=O)N[C@H](Cc1ccccc1)C(=O)N[C@@H](CCCCN)C(N)=O (H-H[X1]AW[dF]K-NH2)
0.771 µM | C[C@H](NC(=O)[C@@H](Cc1c[nH]c2ccccc12)NC(=O)[C@@H](N)Cc1cnc[nH]1)C(=O)N[C@@H](Cc1ccc(O)cc1)C(=O)N[C@H](Cc1ccccc1)C(=O)N[C@@H](CCCCN)C(N)=O (H-H[dW]AY[dF]K-NH2)
4.28 µM | C[C@H](NC(=O)[C@@H](Cc1c[nH]c2ccccc12)NC(=O)[C@@H](N)Cc1cnc[nH]1)C(=O)NN(CC1CCCCC1)C(=O)N[C@H](Cc1ccccc1)C(=O)N[C@@H](CCCCN)C(N)=O (H-H[dW]A[X1][dF]K-NH2)
3.74 µM | C[C@H](NC(=O)[C@@H](Cc1c[nH]c2ccccc12)NC(=O)[C@@H](N)Cc1cnc[nH]1)C(=O)NN(CCc1ccccc1)C(=O)N[C@H](Cc1ccccc1)C(=O)N[C@@H](CCCCN)C(N)=O (H-H[dW]A[X2][dF]K-NH2)
19.5 µM | CC(C)CN(NC(=O)[C@H](C)NC(=O)[C@@H](Cc1c[nH]c2ccccc12)NC(=O)[C@@H](N)Cc1cnc[nH]1)C(=O)N[C@H](Cc1ccccc1)C(=O)N[C@@H](CCCCN)C(N)=O (H-H[dW]A[azaLeu][dF]K-NH2)
15.7 µM | C[C@H](NC(=O)[C@@H](Cc1c[nH]c2ccccc12)NC(=O)[C@@H](N)Cc1cnc[nH]1)C(=O)NN(Cc1ccc(O)cc1)C(=O)N[C@H](Cc1ccccc1)C(=O)N[C@@H](CCCCN)C(N)=O (H-H[dW]A[azaTyr][dF]K-NH2)
3.25 µM | C[C@H](NC(=O)[C@@H](Cc1c[nH]c2ccccc12)NC(=O)[C@@H](N)Cc1cnc[nH]1)C(=O)N[C@H](Cc1ccc(O)cc1)C(=O)N[C@H](Cc1ccccc1)C(=O)N[C@@H](CCCCN)C(N)=O (H-H[dW]A[dY][dF]K-NH2)
1.2 µM | CC(C)CN(NC(=O)[C@@H](Cc1c[nH]c2ccccc12)NC(=O)[C@@H](N)Cc1cnc[nH]1)C(=O)N[C@@H](Cc1c[nH]c2ccccc12)C(=O)N[C@H](Cc1ccccc1)C(=O)N[C@@H](CCCCN)C(N)=O (H-H[dW][azaLeu]W[dF]K-NH2)

SMILES | EC50
C[C@H](NC(=O)N(Cc1ccccc1)NC(=O)[C@@H](N)Cc1cnc[nH]1)C(=O)N[C@@H](Cc1c[nH]c2ccccc12)C(=O)N[C@H](Cc1ccccc1)C(=O)N[C@@H](CCCCN)C(N)=O (H-H[azaPhe]AW[dF]K-NH2) | 16.1 µM
C[C@H](NC(=O)[C@@H](Cc1c[nH]c2ccccc12)NC(=O)[C@@H](N)Cc1cnc[nH]1)C(=O)NN(Cc1cccc2ccccc12)C(=O)N[C@H](Cc1ccccc1)C(=O)N[C@@H](CCCCN)C(N)=O (H-H[dW]A[X3][dF]K-NH2) | 0.723 µM
C[C@H](NC(=O)[C@@H](Cc1c[nH]c2ccccc12)NC(=O)[C@@H](N)Cc1cnc[nH]1)C(=O)NN(Cc1ccc(-c2ccccc2)cc1)C(=O)N[C@H](Cc1ccccc1)C(=O)N[C@@H](CCCCN)C(N)=O (H-H[dW]A[X4][dF]K-NH2) | 1.34 µM
C[C@H](NC(=O)[C@@H](Cc1c[nH]c2ccccc12)NC(=O)[C@@H](N)Cc1cnc[nH]1)C(=O)NN(Cc1ccccc1)C(=O)N[C@H](Cc1ccccc1)C(=O)N[C@@H](CCCCN)C(N)=O (H-H[dW]A[azaPhe][dF]K-NH2) | 2.77 µM
